Results published in patent US20240199651A1, “ANTIBACTERIAL COMPOUNDS” (JANSSEN SCIENCES IRELAND UNLIMITED COMPANY, priority 2021, published 2024).
Like-named read-outs stand apart in the source and are kept apart here.

Key:
[1] = Mitochondrial toxicity (Glu/Gal) assay; format: cell-based; conditions: for Score: mitotoxicity score, Glu/Gal assay; for Δ IC50, glu/IC50, gal: ratio IC50 glu / IC50 gal
Text: The compounds of the invention/examples may have advantages associated with in vitro potency, kill kinetics (i.e. bactericidal effect) in vitro, PK properties, food effect, safety/toxicity (including liver toxicity, coagulation, 5-LO oxygenase), metabolic stability, Ames II negativity, MNT negativity, aqueous based solubility (and ability to formulate) and/or cardiovascular effect e.g. on animals (e.g. anesthetized guinea pig). Data that is generated/calculated may be obtained using standard methods/assays, for instance that are available in the literature or which may be performed by a supplier (e.g. Microsomal Stability Assay—Cyprotex, Mitochondrial toxicity (Glu/Gal) assay—Cyprotex, as well as literature CYP cocktail inhibition assays). GSH can be measured (reactive metabolites, glucuronidation) to observe if a dihydrodiol is observed by LCMS (fragmentation ions), which would correspond to a dihydroxylation on the core heterocycle.

[2] = Chemical stability testing (LCMS); format: physicochemical; conditions: 30 µM
Experimental: • Add 3 μl of a 10 mM DMSO stock solution to 1 ml of the following solvents in a 1.5 ml HPLC vial. • DMSO (reference solution) • H2O/Acetonitril 1/1 (assay solution) • 0.1N HCl/Acetonitril 1/1 (assay solution) • Mix well, […] LCMS • Compare the chromatograms of the two assay solutions with the reference solution and report the additional peaks as degradation peaks

[3] = galactose medium (Glu/Gal mitotoxicity assay), read-out: IC50, gal
[4] = glucose medium (Glu/Gal mitotoxicity assay), read-out: IC50, glu

| SMILES | Score [1] | Δ IC50, glu/IC50, gal [1] | IC50 ([1]; read-out: IC50, gal) [µM] | IC50 ([1]; read-out: IC50, glu) [µM] | IC50 [1, 3] [µM] | IC50 [1, 4] [µM] | further results |
| --- | --- | --- | --- | --- | --- | --- | --- |
| O=C(NCc1ccc(-c2nc3n(n2)CCN(S(=O)(=O)C(F)(F)F)C3)c(F)c1)c1c(C(F)(F)F)nc2ccccn12 [Compound 6] | [x]1 | 0.66 | 134 | 88.5 | – | – | chemical stability, % by LCMS ([2]; 48 h): 100%; chemical stability, % by LCMS ([2]; 48 h, pH 1.6): 100% |
| CCc1nc2nc(N)c(Cl)cn2c1C(=O)NCc1ccc(-c2nc3n(n2)CCN(S(=O)(=O)C(F)(F)F)C3)c(F)c1 [Compound 12] | – | – | – | – | – | – | chemical stability, % by LCMS ([2]; 72 h): 96.14%; chemical stability, % by LCMS ([2]; 72 h, pH 1.6): 97.06% |
| CCc1nc2cc(N)c(Cl)cn2c1C(=O)NCc1ccc(-c2nc3n(n2)CCN(S(=O)(=O)C(F)(F)F)C3)c(F)c1 [Compound 14] | – | – | – | – | – | – | chemical stability, % by LCMS ([2]; 72 h): 100%; chemical stability, % by LCMS ([2]; 72 h, pH 1.6): 100% |
| Cc1cnc2nc(C3CC3)c(C(=O)NCc3ccc(-c4cc5n(n4)CCN(S(=O)(=O)CC(C)C)C5)cc3)n2c1 [Compound 108] | [x]0 | >1.29 | 38.6 | > 50 | – | – | – |
| COCCS(=O)(=O)N1CCn2nc(-c3ccc(CNC(=O)c4c(C5CC5)nc5ncc(C)cn45)cc3)cc2C1 [Compound 109] | – | – | – | – | > 50 | > 50 | – |
| CCc1nc2ncc(C)cn2c1C(=O)NCc1ccc(-c2nc3n(n2)CCN(S(=O)(=O)C(F)(F)F)C3)cc1 [Compound 110] | – | – | – | – | > 100 | > 100 | – |
| O=C(NCc1ccc(-c2cn3c(n2)CN(S(=O)(=O)C(F)(F)F)CC3)cc1)c1c(C(F)(F)F)nc2ccccn12 [Compound 115] | – | >3.08 | 64.8 | > 200 | – | – | – |
| O=C(NCc1ccc(-c2cn3c(n2)CN(S(=O)(=O)C(F)(F)F)CC3)cc1)c1c(C(F)F)nc2ccccn12 [Compound 116] | [x]3 | >9.96 | 20.1 | > 200 | – | – | – |
| CCc1nc2ccc(Cl)cn2c1C(=O)NCc1ccc(-c2cn3c(n2)CN(S(=O)(=O)C(F)(F)F)CC3)cc1 [Compound 117] | – | – | – | – | > 50 | > 50 | – |
| CCc1nc2ccc(Cl)cn2c1C(=O)NCc1ccc(-c2cc3n(n2)CCN(S(=O)(=O)C(F)(F)F)C3)cc1 [Compound 118] | [x]1 | >1.57 | 127 | > 200 | – | – | – |
| O=C(NCc1ccc(-c2cc3n(n2)CCN(S(=O)(=O)C(F)(F)F)C3)cc1)c1c(C(F)(F)F)nc2ccccn12 [Compound 119] | [x]1 | >1.54 | 130 | > 200 | – | – | – |
| O=C(NCc1ccc(-c2cc3n(n2)CCN(S(=O)(=O)C(F)(F)F)C3)cc1)c1c(C(F)F)nc2ccccn12 [Compound 120] | [x]3 | >8.01 | 25 | > 200 | – | – | – |
| Cc1c(-c2ccc(CNC(=O)c3c(C(F)(F)F)nc4ccccn34)cc2)nn2c1CN(S(=O)(=O)C(F)(F)F)CC2 [Compound 121] | – | >4.31 | 46.4 | > 200 | – | – | – |
| O=C(NCc1ccc(-c2nc3n(n2)CCN(S(=O)(=O)C(F)(F)F)C3)cc1)c1c(C(F)(F)F)nc2ccccn12 [Compound 122] | – | – | – | – | > 100 | > 100 | – |
| Cc1cnc2nc(C3CC3)c(C(=O)NCc3cnc(-c4cc5n(n4)CCN(S(=O)(=O)C(F)(F)F)C5)c(F)c3)n2c1 [Compound 125] | – | – | – | – | > 200 | > 200 | – |
| CCc1nc2ncc(C)cn2c1C(=O)NCc1ccc(-c2cc3n(n2)CCN(S(=O)(=O)C(F)(F)F)C3)cn1 [Compound 126] | – | – | – | – | > 200 | > 200 | – |
| Cc1cnc2nc(C3CC3)c(C(=O)NCc3ccc(-c4cc5n(n4)CCN(S(=O)(=O)C(F)(F)F)C5)nc3)n2c1 [Compound 128] | – | – | – | – | > 200 | > 200 | – |
| Cc1cnc2nc(C3CC3)c(C(=O)NCc3cnc(-c4nc5n(n4)CCN(S(=O)(=O)C(F)(F)F)C5)c(F)c3)n2c1 [Compound 130] | – | – | – | – | > 200 | > 200 | – |
| CCc1nc2ncc(C)cn2c1C(=O)NCc1cnc(-c2cc3n(n2)CCN(S(=O)(=O)C(F)(F)F)C3)nc1 [Compound 131] | – | – | – | – | > 100 | > 100 | – |
